Measured values as given in US20250215071A1, “Novel Mcl-1 inhibitor and combination of Mcl-1 and a BH3 mimetic, such as a Bcl-2 inhibitor” (NETRIS PHARMA, priority 2022, published 2025).

Tested on: HeLa UNC5B cells
Assay: UNC5B-induced DNA fragmentation in HeLa UNC5B cells
Assay type: cell-based, Human
Details: doxycycline-induced UNC5B; 18 hours
Procedure: FIG. 2. CRISPR-Cas9 screening identifies genes and molecular pathways involved in UNC5B-induced cell death. Related to FIG. 1. (A): UNC5B induction upon treatment with doxycycline. Stable HCT116 cells, inducible for UNC5B, were treated with the indicated concentrations of doxycycline (Dox). 24 hours later, protein levels of FLAG-UNC5B and GAPDH, used as housekeeping gene, were assessed by western blot. (B): UNC5B induction upon treatment with doxycycline on Hela cells. Stable Hela cells inducible for UNC5B (HeLa UNC5B) were treated with the indicated doses of Dox for 18 hours. Protein levels of His-UNC5B and β-actin, used as housekeeping gene, were measured by western blot. (C,D,E): Induction of UNC5B triggers apoptotic cell death in HCT116 cells. Stable HCTT16 cells inducible for human UNC5B were treated with Dox. To assess cell death, propidium iodide (PI) incorporation was followed in real-time up to 36 hours, using an Incucyte Zoom technology (n=3, ** p<0.01, Kolmogorov Smirnov test) (C). Apoptosis was assessed 18 hours after Dox treatment by DNA fragmentation through flow cytometry ([…] (D) and by caspase-3 activity (E), quantified by fluorometric detection kit (n=3, *p<0.05, ** p<0.01, *** p<0.001, Ordinary two-way ANOVA). Values are given as means±SEM. (F): Caspase inhibition rescues apoptosis triggered by UNC5B. HeLa UNC5B cells were treated with Dox and the pan-caspase inhibitor […] (QVD). 18 hours later, DNA fragmentation was evaluated by flow cytometry (n=3, **** p<0.0001, ordinary two-way ANOVA with Šidák's multiple comparisons test). Values are given as means±SEM. […] The number of guides showing an increase in reads compared to control condition is shown for each gene.
FIG. 4. […] 18 hours after treatment, apoptosis was measured by DNA fragmentation (A) and caspase-3 activity (B) (n=3-4, **** p<0.0001, ordinary two-way ANOVA with Tukey's multiple comparisons test). […] Protein levels of Mcl-1, Bcl-2 and Bcl-XL, as well as of UNC5B and B-actin, used as housekeeping gene, were evaluated by western blot. […]

SMILES: CC(C)C[C@H](NC(=O)[C@H](Cc1ccccc1)NC(=O)c1cnccn1)B(O)O [bortezomib]
- UNC5B-induced apoptosis (DNA fragmentation): suppressed
